In one assay the target is pepsin (Homo sapiens, UniProt P0DJD8). In words: Assay of pepsin inhibition (casein substrate, pH 2.0, OD 280 nm). Conditions: purified RP-HPLC compound. The format is biochemical. An excerpt:
In a feature of the invention, the pepsin inhibitor was selectively purified by removing the high molecular weight compounds from the culture broth by treating it with activated charcoal. The charcoal treated broth was filtered through ultrafiltration membrane and concentrated by lyophilization. The concentrated inhibitor sample was loaded onto a reverse phase-high performance liquid chromatography column using a linear gradient of acetonitrile and triflouroacetate, and the peaks were checked for the inhibitor activity. […] This compound absorbs strongly at 210 nm. The compound was collected and checked as a single purified peptide after loading onto the HPLC column. One unit of inhibitor is defined as the amount of inhibitor which inhibits the protease activity expressed in terms of decrease in optical density of 0.001 per minute.
The protease pepsin was incubated in KC1-HC1 buffer, 0.02 M, pH-2.0, containing the inhibitor in various molar ratios at 37° C. for 30 min. After incubation the residual activity was determined and compared with the controls incubated without the inhibitor.
For example—To 0.05 ml of 100 mg/ml of aqueous solution of pepsin, 0.1 ml of the inhibitor solution was added. […] Precipitated excess casein was removed by filtration after incubation for one hour and the optical density was measured at 280 nm. […]

The next assay concerns Fusarium moniliforme. In words: Antifungal activity assay (mycelial growth / spore germination). The format is cell-based. Conditions: 28° C. An excerpt: (§1) The fungal strains Trichoderma reesei (deposited at The National Collection for Industrial Micro-organisms, Pune India and bearing accession numbers NCIM 992, NCIM 1052- and NCIM 1186), Fusarium oxysporum (bearing accession numbers NCIM 1008, 1043, 1072), Aspergillus flavus (bearing accession numbers NCIM 535, 536, 538, 542), Aspergillus oryzae (bearing accession numbers NCIM 637, 643, 649, 1032), Fusarium moniliforme (bearing accession numbers NCIM 1099, 1100), Alternaria alternata (bearing accession numbers NCIM 887), Claviceps purpurea (bearing accession numbers NCIM 1046), Curvularia fallax (bearing accession numbers NCIM 714), Curvularia lunata (NCIM 716), Curvularia cymbopogonis (bearing accession numbers NCIM 695) and Penicillium fellatanum (bearing accession numbers NCIM 1227) were grown on potato dextrose agar slants for 7-8 days. The said fungal strains have characteristics similar to the strains deposited at American Type Culture Collection, USA and bearing accession number as under: • Trichoderma reesei NCIM 992-ATCC No.13631 • Trichoderma reesei NCIM 1052-ATCC No.24449 • Trichoderma reesei NCIM 1186-ATCC No.26921 Fungal mycelium from the freshly grown culture was inoculated at the centre of petri plates containing potato dextrose agar medium and incubated till they form small circular growth. The time period for the vegetative growth of different fungus is different. On the periphery of the advancing fungal mycelia, four filter paper discs were impregnated at equal distances, with four different concentrations of the inhibitor sample. The plates were incubated at room temperature for 24-48 h to check the crescent zone of the retarded mycelial growth. For sporulating fungus the applicants also had checked the inhibition by spore suspension method. In this method the agar slants were incubated at room temperature till they sporulate. 4 ml of sterile distilled water was added aseptically to the agar slant and the spores were scrapped by using an inoculation loop. 1 ml of this suspension was mixed with 4 ml of malt extract, glucose, yeast extract, peptone media containing 0.4% agarose and poured onto the potato dextrose agar plate. This plate was incubated at room temperature for 4-10 h. Filter paper discs were impregnated and different concentrations of the inhibitor was added onto it. The plates were further incubated at room temperature for 24-48 h and the inhibition zone against the growth was checked. […] The advantages of the Invention are
(§2) Inhibition of growth of fungi by the inhibitor was studied using inhibition assays against mycelial growth and spore germination.
(§3) For example-In case of mycelial growth inhibition assay, fungal mycelium from freshly grown culture was inoculated at the center of potato dextrose agar plate and incubated at 28° C. for 48-72 hours. Sterile filter paper discs impregnated with different concentrations of the inhibitor were placed on the periphery of the growing fungal mycelium. The plates were incubated at 28° C. and the crescent zones of the retarded mycelial growth were observed. In case of inhibition assay against spore-germination, fungal spore suspension was made in malt extract, glucose, yeast extract and peptone (MGYP) liquid medium. To the spore suspension, various concentration of the inhibitor was added. The resulting suspension was incubated at 28° C. for 24 hours. The germination of the spores in presence and absence of the inhibitor were checked under inverted microscope. The minimum inhibitory does MID of several fungal strains are given below in the Table 2.

For another assay, the system named is Alternaria alternata. The description is as above. The format is cell-based.
Text: as §1, §2, §3

For a further assay, the system named is Fusarium oxysporum. The assay is described as above. The format is cell-based.
Text: as §1, §2, §3

The subject of another assay is Aspergillus flavus. The description is as above. The format is cell-based.
Text: as §1, §2, §3

For a further assay, the system named is Trichoderma reesei. The description is as above. The format is cell-based.
Text: as §1, §2, §3

The next assay has as its system Aspergillus oryzae. Described as above. The format is cell-based.
Text: as §1, §2, §3

The subject of another assay is Curvularia fallax. In words: Mycelial growth inhibition, filter paper disc on potato dextrose agar. Conditions: Curvularia fallax NCIM 714; room temperature 24-48 h. The format is cell-based.
Text: as §1, with “are […]” for “are”

The subject of the next assay is Curvularia lunata. The assay is described as above. The format is cell-based. Conditions: Curvularia lunata NCIM 716; room temperature 24-48 h.
Text: as §1, with “are […]” for “are”

The next assay relates to Curvularia cymbopogonis. The description is as above. The format is cell-based. Conditions: Curvularia cymbopogonis NCIM 695; room temperature 24-48 h.
Text: as §1, with “are […]” for “are”

The subject of the next assay is Claviceps purpurea. The description is as above. The format is cell-based. Conditions: Claviceps purpurea NCIM 1046; room temperature 24-48 h.
Text: as §1, with “are […]” for “are”

Ends that are not written are not given here.

Sequence of pepsin (P0DJD8 63-388): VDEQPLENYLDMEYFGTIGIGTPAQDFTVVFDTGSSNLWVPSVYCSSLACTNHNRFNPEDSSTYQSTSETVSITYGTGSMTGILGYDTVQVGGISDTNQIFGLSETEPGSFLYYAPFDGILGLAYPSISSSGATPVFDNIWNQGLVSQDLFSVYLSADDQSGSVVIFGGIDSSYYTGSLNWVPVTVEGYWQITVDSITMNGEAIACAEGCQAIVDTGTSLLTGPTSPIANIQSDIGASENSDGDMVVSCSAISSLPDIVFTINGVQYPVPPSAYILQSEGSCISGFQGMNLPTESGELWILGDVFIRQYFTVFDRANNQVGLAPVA

With AGKKDDDDPPE [inhibitor], the “inhibition against pepsin (RP-HPLC peak)” value against pepsin is listed as “showed the inhibition”. The “MID (minimum inhibitory dose)” value with Fusarium moniliforme is reported as 1.840 mg; in the assay on Alternaria alternata (Alternaria alternata, 28° C.) it was 0.582 mg; in the assay with Fusarium oxysporum (Fusarium oxysporum, 28° C.), 2.300 mg; in the assay on Aspergillus flavus (Aspergillus flavus, 28° C.), 0.817 mg; in the assay on Trichoderma reesei (Trichoderma reesei, 28° C.), 0.292 mg; in the assay on Aspergillus oryzae (Aspergillus oryzae, 28° C.), 1.147 mg. The “inhibition of mycelial growth” value in the assay on Alternaria alternata (Altemaria alternata NCIM 887, room temperature 24-48 h) was “strongly inhibit”; in the assay with Fusarium oxysporum (Fusarium oxysporum NCIM 1008, 1072, room temperature 24-48 h) it was “strongly inhibit”; in the assay on Aspergillus flavus (Aspergillus flavus NCIM 535, 542, room temperature 24-48 h), “strongly inhibit”; in the assay on Trichoderma reesei (Trichoderma reesei NCIM 992, 1052, 1186, room temperature 24-48 h), “strongly inhibit”; in the assay with Aspergillus oryzae (Aspergillus oryzae NCIM 637, 643, room temperature 24-48 h), “strongly inhibit”; in the assay with Curvularia fallax it was “strongly inhibit”. In addition, the “inhibition of mycelial growth” value in the assay on Curvularia lunata, with Curvularia cymbopogonis and in the assay on Claviceps purpurea was “strongly inhibit” each time.

The values are drawn from patent US6846664B2, “Process for the preparation of protease inhibitor using novel alkalothermophilic bacillus sp” (priority 2000, dated 2005).
